Legend:
[1] = compound: CC[C@H](Nc1ncnc2[nH]cnc12)c1nc2cccc(F)c2c(=O)n1-c1ccccc1 [Idelalisib]; experiment: relative viability (nuclei count vs DMSO), 5 days (fraction); higher = more cells survive
Procedure, shortened: (§1)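 Viability here means nuclei in treated wells divided by nuclei in vehicle wells, reported as the median across plates. Only plates with control CV below 25% and at least one doubling passed. Lung cancer cell lines in 1536-well plates were exposed to five √10-spaced library-drug doses for 5 days and counted from 4× Hoechst images in MetaXpress.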

[2] = compound: Nc1nc2[nH]cc(CCc3ccc(C(=O)N[C@@H](CCC(=O)O)C(=O)O)cc3)c2c(=O)[nH]1 [Pemetrexed]; experiment: as above
Procedure, shortened: as §1

Row | Cell Line | relative viability ([1]; 0.04 µM) | relative viability ([1]; 0.1265 µM) | relative viability ([1]; 0.4 µM) | relative viability ([1]; 1.265 µM) | relative viability ([1]; 4 µM) | relative viability ([2]; 0.002 µM) | relative viability ([2]; 0.006325 µM) | relative viability ([2]; 0.02 µM) | relative viability ([2]; 0.06325 µM) | relative viability ([2]; 0.2 µM) | relative viability ([2]; 0.2 µM, anchor plate)
1 | NCI-H1648 | 0.963 | 0.918 | 0.697 | 0.849 | 0.661 | 0.992 | 0.924 | 0.888 | 0.783 | 0.931 | 0.77
2 | NCI-H1650 | 0.984 | 0.907 | 0.882 | 0.91 | 0.815 | 0.788 | 0.89 | 1.21 | 0.633 | 0.341 | 0.367
3 | NCI-H1651 | 1.01 | 1.01 | 0.885 | 0.965 | 0.938 | 0.951 | 0.91 | 1.04 | 0.95 | 0.945 | 0.616
4 | NCI-H1666 | 1.03 | 1.04 | 0.911 | 0.981 | 0.902 | 1.05 | 1.02 | 0.999 | 1.02 | 0.796 | 0.834
5 | NCI-H1703 | 0.916 | 1.07 | 0.809 | 0.832 | 0.509 | 0.917 | 0.871 | 1.39 | 1.06 | 0.92 | 
6 | NCI-H1734 | 1.15 | 1.04 | 0.833 | 0.959 | 0.938 | 0.997 | 0.923 | 1.11 | 0.964 | 0.676 | 0.433
7 | NCI-H1755 | 1.01 | 1.01 | 0.955 | 0.926 | 0.949 | 0.872 | 0.983 | 1.01 | 0.995 | 0.879 | 0.47
8 | NCI-H1792 | 1.08 | 0.942 | 0.653 | 1.09 | 0.85 | 1.09 | 0.897 | 1 | 0.893 | 0.94 | 0.968
9 | NCI-H1793 | 1.01 | 1.02 | 0.569 | 0.846 | 0.545 | 0.909 | 0.807 | 0.986 | 0.987 | 0.93 | 0.923
10 | NCI-H1915 | 1.08 | 0.999 | 0.948 | 1.11 | 0.984 | 0.95 | 0.976 | 1.12 | 0.982 | 0.98 | 0.507
11 | NCI-H1944 | 1.21 | 0.943 | 0.785 | 1.01 | 0.803 | 0.716 | 0.99 | 1.04 | 0.956 | 0.969 | 0.619
12 | NCI-H1975 | 1.02 | 1.04 | 0.864 | 0.921 | 0.737 | 0.698 | 0.938 | 1.01 | 0.87 | 0.54 | 0.291
13 | NCI-H1993 | 1.1 | 1.12 | 0.804 | 0.917 | 0.7 | 0.866 | 0.995 | 0.962 | 0.896 | 0.734 | 0.592
14 | NCI-H2009 | 0.998 | 1.02 | 0.974 | 1.06 | 1.04 | 0.905 | 0.953 | 1.14 | 0.997 | 0.976 | 1.03
15 | NCI-H2023 | 1.05 | 0.973 | 0.792 | 0.818 | 0.968 | 0.762 | 0.87 | 1.11 | 0.802 | 0.292 | 0.249
16 | NCI-H2085 | 1.05 | 0.995 | 0.91 | 0.955 | 0.729 | 0.947 | 0.979 | 1.08 | 1.03 | 0.98 | 0.921

Row | Cell Line | relative viability ([1]; 0.04 µM) | relative viability ([1]; 0.1265 µM) | relative viability ([1]; 0.4 µM) | relative viability ([1]; 1.265 µM) | relative viability ([1]; 4 µM) | relative viability ([2]; 0.002 µM) | relative viability ([2]; 0.006325 µM) | relative viability ([2]; 0.02 µM) | relative viability ([2]; 0.06325 µM) | relative viability ([2]; 0.2 µM) | relative viability ([2]; 0.2 µM, anchor plate)
17 | NCI-H2087 | 1.09 | 1.13 | 0.868 | 1.12 | 0.749 | 0.926 | 0.875 | 1.15 | 1.05 | 0.639 | 0.684
18 | NCI-H2126 | 1.02 | 1.08 | 0.837 | 1.03 | 0.931 | 0.974 | 0.992 | 1.04 | 1 | 0.91 | 0.684
19 | NCI-H2170 | 1.01 | 1.02 | 0.88 | 0.885 | 0.807 | 0.952 | 0.928 | 1.04 | 1.01 |  | 
20 | NCI-H2228 | 1.22 | 0.84 | 0.788 | 1.12 | 0.972 | 0.799 | 0.878 | 1.2 | 0.838 | 0.333 | 0.339
21 | NCI-H2342 | 1.06 | 1.09 | 0.907 | 1.03 | 0.882 | 0.804 | 0.95 | 1.03 | 1.02 | 1.08 | 0.769
22 | NCI-H2347 | 1.1 | 1.03 | 0.904 | 1.14 | 0.866 | 0.931 | 0.965 | 1.14 | 0.9 | 0.655 | 0.42
23 | NCI-H2405 | 1.06 | 0.985 | 0.886 | 1 | 0.956 | 0.97 | 0.985 | 1.09 | 0.98 | 0.961 | 1.08
24 | NCI-H3122 | 1.03 | 0.989 | 1 | 0.977 | 1.03 | 1.01 | 0.953 | 1.02 | 0.951 | 0.576 | 0.201
25 | PC-3 [JPC-3] | 1.19 | 1.05 | 1.03 | 1.02 | 0.915 | 0.882 | 1.1 | 1.06 | 1.04 | 0.964 | 1.16
26 | PC-14 | 1.07 | 1.05 | 0.951 | 0.922 | 0.959 | 0.975 | 1.01 | 1.08 | 0.602 | 0.142 | 0.136
27 | RERF-LC-KJ | 1.11 | 0.99 | 0.955 | 0.959 | 0.817 | 0.958 | 0.969 | 1.03 | 0.995 | 0.746 | 0.486
28 | SK-LU-1 | 1.07 | 1.11 | 0.866 | 0.953 | 0.979 | 0.944 | 0.979 | 1.05 | 1.12 | 1 | 0.927
29 | SK-MES-1 | 1.04 | 1.01 | 0.885 | 0.749 | 0.745 | 0.979 | 0.932 | 1.07 | 0.976 | 0.934 | 0.94
30 | SW 900 | 0.855 | 0.851 | 0.701 | 0.853 | 0.696 | 0.809 | 0.907 | 0.948 | 0.814 | 0.487 | 0.496
31 | SW 1573 | 1.09 | 0.886 | 0.896 | 0.961 | 0.923 | 1.04 | 0.951 | 1.05 | 0.893 | 0.976 | 0.897

Reference: the supplement of paper PMC10307832
